Measurements taken from article PMC3725505 (Scientific Reports, 2013).

Biological target: Kelch domain of human Keap1 (residues 321–609) (Homo sapiens, UniProt Q14145)
Experiment: Isothermal titration calorimetry
Type: binding
Details: ITC, pH 7; for TΔS (entropy term upon binding) / ΔG (change in Gibbs free energy upon binding) / ΔH (change in enthalpy upon binding): T = 298.15 K, 50 mM sodium phosphate, 100 mM NaCl, 1 mM DTT, Table 1 set; for Kd: Kd to Kelch, 25°C

Chain of Kelch domain of human Keap1 (residues 321–609) (Q14145 321-609): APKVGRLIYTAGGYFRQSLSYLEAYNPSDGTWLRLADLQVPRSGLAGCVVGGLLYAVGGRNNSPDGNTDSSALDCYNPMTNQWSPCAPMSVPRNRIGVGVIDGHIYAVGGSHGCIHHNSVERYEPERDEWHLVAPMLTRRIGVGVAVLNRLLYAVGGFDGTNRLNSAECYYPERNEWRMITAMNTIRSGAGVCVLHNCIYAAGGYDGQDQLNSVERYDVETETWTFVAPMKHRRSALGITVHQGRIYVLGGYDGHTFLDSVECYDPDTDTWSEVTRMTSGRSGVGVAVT

Compound	TΔS (entropy term upon binding) [kcal/mol]	ΔG (change in Gibbs free energy upon binding) [kcal/mol]	ΔH (change in enthalpy upon binding) [kcal/mol]	Kd [nM]
CSCC[C@H](NC(=O)[C@H](CCC(N)=O)NC(=O)[C@H](CC(C)C)NC(=O)[C@H](CO)NC(=O)[C@H](CCC(N)=O)NC(=O)[C@H](CC(C)C)NC(=O)[C@H](CCC(=O)O)NC(=O)CNC(=O)[C@@H](NC(=O)[C@H](CO)NC(=O)[C@@H]1CCCN1C(=O)[C@H](CC(=O)O)NC(=O)[C@@H](NC(=O)[C@H](CCC(=O)O)NC(=O)[C@H](CCCCN)NC(=O)[C@H](CO)NC(=O)[C@H](CO)NC(=O)[C@H](CC(C)C)NC(C)=O)C(C)C)[C@@H](C)O)C(=O)N1CCC[C@H]1C(=O)N[C@@H](CCC(=O)O)C(N)=O [p62]	-10.34	-8.04 ± 0.03	-18.38 ± 0.07	> 1000
CC[C@H](C)[C@H](NC(=O)[C@@H]1CCCN1C(=O)[C@H](CC(C)C)NC(=O)[C@H](Cc1ccccc1)NC(=O)[C@H](CCC(=O)O)NC(=O)CNC(=O)[C@@H](NC(=O)[C@H](CCC(=O)O)NC(=O)[C@H](CCC(=O)O)NC(=O)[C@H](CC(=O)O)NC(=O)[C@H](CC(C)C)NC(=O)[C@H](CCC(N)=O)NC(=O)[C@H](CC(C)C)NC(=O)[C@H](CCC(N)=O)NC(=O)[C@H](C)NC(=O)[C@H](Cc1ccccc1)NC(C)=O)[C@@H](C)O)C(=O)N[C@@H](CCC(N)=O)C(=O)N1CCC[C@H]1C(=O)N[C@@H](C)C(=O)N[C@@H](CCC(N)=O)C(N)=O [NRF2 site 1]	-6.56	-10.40 ± 0.03	-16.96 ± 0.05	–
Ac-FAQLQLDPETGEFLPIQPAQ-NH2 [NRF2 site 1 E78P]	-5.64	-11.12 ± 0.03	-16.76 ± 0.05	–
Ac-SLEEPHSPETGEKVVAGEVN-NH2 [WTX]	-9.03	-9.01 ± 0.04	-18.04 ± 0.09	100 to 200

More lines, main results first:

TΔS (entropy term upon binding) [kcal/mol]	ΔG (change in Gibbs free energy upon binding) [kcal/mol]	ΔH (change in enthalpy upon binding) [kcal/mol]	Compound	Kd [nM]
-9.69	-7.60 ± 0.03	-17.29 ± 0.06	Ac-ANGNANEENGEQEADNEVD-NH2 [PTMA iso 2]	–
-8.02	-6.72 ± 0.05	-14.74 ± 0.12	Ac-ANGNAENEENGEQEADNEVD-NH2 [PTMA iso 1]	–
-10.05	-9.07 ± 0.03	-19.12 ± 0.06	Ac-INVRKRNVESGEEELASKLD-NH2 [PGAM5]	–
